Assay results published in patent US8993593B2, “N-(4-(6-fluoro-3,4-dihydroisoquinolin-2(1H)-yl)-2,6-dimethylphenyl)-3,3-dimethylbutanamide as potassium channel modulators” (Valeant Pharmaceuticals International, priority 2006, dated 2015).

How the values were obtained:
KCNQ1/NE1 = KCNQ1/NE1 (Homo sapiens, UniProt P51787); assay: Two-electrode voltage-clamp in Xenopus laevis oocytes, KCNQ1/KCNE1; type: cell-based; set-up: dose or concentration left out as unconfirmed; details: oocyte expression
Procedure: (§1) Female Xenopus laevis extracted ovaries were purchased from eNASCO (LM00935MX, eNASCO Fort Atkinson, Wis.). […] Approximately 50 nl cRNA (about 50 ng) was injected for KCNQ1, KCNQ4, and KCNQ5 using a Nanoject microinjector (Drummond, Broomall, Pa., USA). For co-expression of KCNQ2 and KCNQ3 and of KCNQ1 and KCNE1, cRNA's were mixed in equal molar ratios before injection of approximately 50 nl. […] Oocytes were kept in Culture Barth solution at 19° C. which was changed daily and currents were recorded after 3 to 5 days.
KCNQ channel currents expressed in Xenopus laevis oocytes were recorded using a two-electrode voltage-clamp. […]
(§2) Data were acquired by means of an Axograph X software (Axograph Scientific, Sydney, AU) and analyzed using Graph Pad Prism (GraphPad Software Inc., CA, USA). […]
(§3) After steady channel current was recorded in the presence of Retigabine at its EC75, recorded oocyte was washed with the recording solution until its steady current returned to its normal level without the presence of any drugs. Then the channel steady current was recorded in the presence of the test compound at its EC75. The percent efficacy was then expressed as: % efficacy=(C2/C 1)×100 where C2 is the recorded steady current in the presence of follow-on compound at its EC75 and C1 is the recorded steady current in the presence of Retigabine at its EC75.

hERG = hERG (Homo sapiens, UniProt Q12809); assay: in vitro
KCNQ1 = KCNQ1 (Homo sapiens, UniProt P51787); assay: Two-electrode voltage-clamp in Xenopus laevis oocytes, KCNQ1; type: cell-based; set-up: KCNQ1 Block (%): dose or concentration left out as unconfirmed
Procedure: as §1
(§4) KCNQ channel currents expressed in Xenopus laevis oocytes were recorded using a two-electrode voltage-clamp. […] The oocytes were placed in custom built perfusion chambers connected to a continuous flow system and impaled with a current electrode and a voltage-clamp electrode pulled from borosilicate glass on a Flaming/Brown Micropipette Puller (Sutter Instruments Co, Novato, Calif., USA).
(§5) All compounds were dissolved in DMSO to obtain concentrated stock solutions. On the day of electrophysiological experiments the stock solutions were thawed and diluted in recording solution to their final concentrations. The final DMSO concentration never exceeded 0.1%. Compound delivery was performed using a custom built multi-barrel apparatus connected to the flow system.
as §2, §3

KCNQ4 = KCNQ4 (Homo sapiens, UniProt P56696); assay: Two-electrode voltage-clamp in Xenopus laevis oocytes, KCNQ4; type: cell-based
Procedure: as §1, §4, §5, §2, §3

KCNQ2 channels = biological target: T1, KCNQ2 channels (Homo sapiens, UniProt O43526); assay: Potassium ion efflux, KCNQ2 channels expressed in CHO cells; type: cell-based
T1 construct: expressed in transfected cells; host or cells: CHO cells
Procedure: Using natively expressed M-currents present in differentiated pheochromocytoma (PC-12) cells and CHO cells transfected with KCNQ2 and hERG potassium channels, the in vitro activity of compound A on potassium ion efflux was determined.
The EC50 values for retigabine and compound A on the activation of KCNQ2 channels expressed in CHO cells were determined on three separate occasions in triplicate.

T1 sequence (O43526 whole entry): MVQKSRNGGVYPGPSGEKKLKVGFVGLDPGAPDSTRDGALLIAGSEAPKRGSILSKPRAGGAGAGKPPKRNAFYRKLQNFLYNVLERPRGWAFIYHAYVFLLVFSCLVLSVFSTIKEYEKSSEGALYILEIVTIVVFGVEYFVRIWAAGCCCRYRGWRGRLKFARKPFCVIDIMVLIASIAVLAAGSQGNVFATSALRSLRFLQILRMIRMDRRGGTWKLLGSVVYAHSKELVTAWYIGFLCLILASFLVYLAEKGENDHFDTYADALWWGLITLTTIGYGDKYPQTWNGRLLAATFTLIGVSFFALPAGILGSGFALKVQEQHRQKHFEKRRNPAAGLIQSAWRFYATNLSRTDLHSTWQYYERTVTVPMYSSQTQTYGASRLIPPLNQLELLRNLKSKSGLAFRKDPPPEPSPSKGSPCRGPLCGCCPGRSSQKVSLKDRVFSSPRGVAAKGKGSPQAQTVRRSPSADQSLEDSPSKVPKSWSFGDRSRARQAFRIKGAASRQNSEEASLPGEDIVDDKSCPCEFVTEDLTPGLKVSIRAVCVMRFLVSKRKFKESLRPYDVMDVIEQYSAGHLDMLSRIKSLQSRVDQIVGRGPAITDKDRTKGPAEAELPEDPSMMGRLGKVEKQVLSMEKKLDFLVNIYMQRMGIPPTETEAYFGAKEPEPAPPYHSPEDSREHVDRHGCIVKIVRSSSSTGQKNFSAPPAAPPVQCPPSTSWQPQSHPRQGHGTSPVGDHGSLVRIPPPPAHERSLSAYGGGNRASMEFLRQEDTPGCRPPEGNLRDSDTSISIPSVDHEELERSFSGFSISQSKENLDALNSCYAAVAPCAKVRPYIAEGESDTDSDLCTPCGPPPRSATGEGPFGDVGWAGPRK
hERG, sequence (Q12809 whole entry): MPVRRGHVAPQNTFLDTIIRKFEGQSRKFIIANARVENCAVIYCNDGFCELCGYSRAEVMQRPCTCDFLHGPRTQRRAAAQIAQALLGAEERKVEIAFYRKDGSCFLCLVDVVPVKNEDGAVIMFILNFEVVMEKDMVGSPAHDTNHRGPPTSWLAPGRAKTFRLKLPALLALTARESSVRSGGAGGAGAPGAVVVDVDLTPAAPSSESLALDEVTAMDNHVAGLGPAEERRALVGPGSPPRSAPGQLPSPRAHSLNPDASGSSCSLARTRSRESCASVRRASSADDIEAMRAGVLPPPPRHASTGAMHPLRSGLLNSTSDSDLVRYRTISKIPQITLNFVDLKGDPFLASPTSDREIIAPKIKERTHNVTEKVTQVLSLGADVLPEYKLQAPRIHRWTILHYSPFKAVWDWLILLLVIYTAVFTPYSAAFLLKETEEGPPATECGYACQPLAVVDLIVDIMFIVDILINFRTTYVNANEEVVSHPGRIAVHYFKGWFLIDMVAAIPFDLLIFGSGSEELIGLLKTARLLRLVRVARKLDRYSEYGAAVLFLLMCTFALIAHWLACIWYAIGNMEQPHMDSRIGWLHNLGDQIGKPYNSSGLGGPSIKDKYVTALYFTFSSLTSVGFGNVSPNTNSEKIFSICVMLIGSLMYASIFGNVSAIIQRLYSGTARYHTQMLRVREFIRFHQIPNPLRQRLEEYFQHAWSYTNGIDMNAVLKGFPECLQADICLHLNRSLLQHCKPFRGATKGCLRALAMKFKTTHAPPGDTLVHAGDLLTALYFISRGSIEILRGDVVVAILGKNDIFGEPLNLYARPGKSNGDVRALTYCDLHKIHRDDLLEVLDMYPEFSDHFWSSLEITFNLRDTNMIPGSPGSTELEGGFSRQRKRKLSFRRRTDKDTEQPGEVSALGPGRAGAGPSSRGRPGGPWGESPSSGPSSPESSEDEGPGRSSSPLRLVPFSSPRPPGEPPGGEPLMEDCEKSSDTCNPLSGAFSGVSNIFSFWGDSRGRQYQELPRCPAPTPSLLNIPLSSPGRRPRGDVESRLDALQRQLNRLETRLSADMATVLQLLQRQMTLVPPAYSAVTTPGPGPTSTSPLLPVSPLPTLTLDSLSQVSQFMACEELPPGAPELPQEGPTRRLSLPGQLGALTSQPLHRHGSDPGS
KCNQ1/NE1, sequence (P51787 whole entry): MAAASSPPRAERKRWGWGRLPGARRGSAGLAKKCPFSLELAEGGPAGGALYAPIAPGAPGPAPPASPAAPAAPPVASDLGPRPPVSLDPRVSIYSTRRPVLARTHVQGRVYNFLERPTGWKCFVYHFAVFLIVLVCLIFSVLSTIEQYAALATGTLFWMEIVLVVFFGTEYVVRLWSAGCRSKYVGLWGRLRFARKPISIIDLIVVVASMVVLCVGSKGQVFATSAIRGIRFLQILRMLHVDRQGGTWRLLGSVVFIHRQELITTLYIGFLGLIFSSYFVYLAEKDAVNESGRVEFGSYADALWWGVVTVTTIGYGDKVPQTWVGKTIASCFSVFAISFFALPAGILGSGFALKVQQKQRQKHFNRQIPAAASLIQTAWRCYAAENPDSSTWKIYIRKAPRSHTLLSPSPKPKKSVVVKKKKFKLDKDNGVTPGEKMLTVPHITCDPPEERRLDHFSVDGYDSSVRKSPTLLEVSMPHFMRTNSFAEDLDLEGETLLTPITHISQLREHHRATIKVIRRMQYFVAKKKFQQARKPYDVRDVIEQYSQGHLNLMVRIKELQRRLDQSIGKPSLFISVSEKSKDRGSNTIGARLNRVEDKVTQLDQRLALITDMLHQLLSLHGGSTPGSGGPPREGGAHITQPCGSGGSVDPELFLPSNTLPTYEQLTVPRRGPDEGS

In the case of `Cc1cc(N2CCc3cc(F)ccc3C2)cc(C)c1NC(=O)CC(C)(C)C` [compound A, N-[4-(6-fluoro-3,4-dihydro-1H-isoquinolin-2-yl)-2,6-dimethylphenyl]-3,3-dimethyl butanamide], the “KCNQ1/NE1 Block (%)” value (KCNQ1/NE1) is reported as 3.5%, the inhibition at 30 µM (hERG) is reported as -0.1% and the “KCNQ1 Block (%)” value (KCNQ1; oocyte expression) is reported as 0%. For the same molecule, the “effect on KCNQ1 (cardiac potential)” value (KCNQ1; selectivity versus KCNQ2-5, in words) was “not affecting”, the EC50 (KCNQ4) was 0.63 µM and the “KCNQ4 Efficacy Relative to Retigabine (%)” value (KCNQ4; oocyte expression, at EC75) was 100%. The EC50 (KCNQ2 channels) was 0.011 µM.
